In PubChem BioAssay (NCI):
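Dose response: 5 concentrations. Exposure: 48 h. Format: 96-well plates. Endpoint: linear interpolation; highest concentration if not reached. TGI marks complete inhibition of growth.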

Experiments:
Assay in all cases: NCI-60 cell line screen, 48 h
[1] = system: DMS 114 small cell lung
[2] = system: UO-31 renal
[3] = system: NCI-H226 lung
[4] = system: SNB-75 CNS
[5] = system: OVCAR-4 ovarian
[6] = system: HT29 colon
[7] = system: HCT-116 colon
[8] = system: SF-539 CNS
[9] = system: HL-60(TB) leukemia
[10] = system: SN12C renal
[11] = system: UACC-257 melanoma
[12] = system: SNB-19 CNS
[13] = system: SK-MEL-5 melanoma
[14] = system: IGROV1 ovarian
[15] = system: HCT-15 colon
[16] = system: NCI-H460 lung
[17] = system: SW-620 colon
[18] = system: HCC-2998 colon
[19] = system: SR leukemia
[20] = system: CAKI-1 renal
[21] = system: MOLT-4 leukemia
[22] = system: A549 NSCLC
[23] = system: SK-OV-3 ovarian
[24] = system: NCI-H522 lung
[25] = system: CCRF-CEM leukemia
[26] = system: 786-0 renal
[27] = system: KM12 colon
[28] = system: LOX IMVI melanoma
[29] = system: NCI-H23 lung
[30] = system: OVCAR-8 ovarian
[31] = system: EKVX NSCLC
[32] = system: DLD-1 colon
[33] = system: SK-MEL-2 melanoma
[34] = system: SF-268 CNS
[35] = system: MALME-3M melanoma
[36] = system: HOP-18 NSCLC
[37] = system: OVCAR-5 ovarian
[38] = system: OVCAR-3 ovarian
[39] = system: M19-MEL melanoma
[40] = system: RXF-631 renal
[41] = system: HOP-92 NSCLC
[42] = system: M14 melanoma
[43] = system: KM20L2 colon
[44] = system: COLO 205 colon
[45] = system: U251 CNS
[46] = system: UACC-62 melanoma
[47] = system: TK-10 renal
[48] = system: SK-MEL-28 melanoma
[49] = system: SF-295 CNS
[50] = system: K-562 leukemia
[51] = system: ACHN renal
[52] = system: LXFL 529 NSCLC
[53] = system: DMS 273 small cell lung
[54] = system: A498 renal
[55] = system: HOP-62 NSCLC
[56] = system: SNB-78 CNS
[57] = system: RPMI-8226 leukemia
[58] = system: RXF 393 renal

COC(=O)C1Cc2c([nH]c3ccccc23)C(C2CCCCC2)N1 (stereo not given) gave a TGI [1] of over 100 µM, a TGI [2] of over 100 µM and a TGI [3] of over 100 µM. It also gave a TGI [4] of over 100 µM, a TGI [5] of over 100 µM and a TGI [6] of over 100 µM. It also gave a TGI [7] of over 100 µM, a TGI [8] of over 100 µM and a TGI [9] of over 100 µM. The TGI [10] was over 100 µM, the TGI [11] was over 100 µM and the TGI [12] was over 100 µM. The TGI [13] was over 100 µM, the TGI [14] was over 100 µM and the TGI [15] was over 100 µM. For the same compound, the TGI [16] was over 100 µM, the TGI [17] was over 100 µM and the TGI [18] was over 100 µM. The TGI [19] was over 100 µM, the TGI [20] was over 100 µM and the TGI [21] was over 100 µM. The TGI [22] was over 100 µM, the TGI [23] was over 100 µM and the TGI [24] was over 100 µM. It also gave a TGI [25] of over 100 µM, a TGI [26] of over 100 µM and a TGI [27] of over 100 µM. The TGI [28] was over 100 µM, the TGI [29] was over 100 µM and the TGI [30] was over 100 µM. For the same compound, the TGI [31] was over 100 µM, the TGI [32] was over 100 µM and the TGI [33] was over 100 µM. The TGI [34] was over 100 µM, the TGI [35] was over 100 µM and the TGI [36] was over 100 µM. For the same compound, the TGI [37] was over 100 µM, the TGI [38] was over 100 µM and the TGI [39] was over 100 µM. The TGI [40] was over 100 µM, the TGI [41] was over 100 µM and the TGI [42] was over 100 µM. It also gave a TGI [43] of over 100 µM, a TGI [44] of over 100 µM and a TGI [45] of over 100 µM. The TGI [46] was over 100 µM, the TGI [47] was over 100 µM and the TGI [48] was over 100 µM. The TGI [49] was over 100 µM, the TGI [50] was over 100 µM and the TGI [51] was over 100 µM. For the same compound, the TGI [52] was over 100 µM and the TGI [53] was over 100 µM.
With COc1ccc(C(=C[N+](=O)[O-])c2ccc(OC)cc2)cc1 the TGI [1] was 23.7 µM, the TGI [2] was 88.9 µM and the TGI [3] was 52.4 µM. It also gave a TGI [4] of 30.3 µM, a TGI [5] of over 100 µM and a TGI [6] of 20.1 µM. For the same compound, the TGI [7] was 27.8 µM, the TGI [8] was 29.3 µM and the TGI [9] was over 34.7 µM. It also gave a TGI [10] of over 100 µM, a TGI [11] of over 92.6 µM and a TGI [12] of over 94.4 µM. It also gave a TGI [13] of over 100 µM, a TGI [14] of over 63.3 µM and a TGI [15] of over 100 µM. For the same compound, the TGI [16] was 54.7 µM, the TGI [17] was over 73.3 µM and the TGI [18] was 31.5 µM. It also gave a TGI [19] of 45.1 µM, a TGI [20] of over 100 µM and a TGI [21] of 29.3 µM. The TGI [22] was over 100 µM, the TGI [23] was 36.2 µM and the TGI [24] was 32.7 µM. The TGI [25] was over 92.7 µM, the TGI [54] was 41.3 µM and the TGI [26] was over 89 µM. For the same compound, the TGI [27] was over 46.5 µM, the TGI [28] was 46.4 µM and the TGI [29] was over 57.1 µM. For the same compound, the TGI [30] was 37.9 µM, the TGI [31] was over 100 µM and the TGI [55] was 50.6 µM. For the same compound, the TGI [32] was over 84.3 µM, the TGI [33] was 33.3 µM and the TGI [34] was over 100 µM. The TGI [35] was over 100 µM, the TGI [36] was over 100 µM and the TGI [37] was 99.5 µM. It also gave a TGI [38] of 46.1 µM, a TGI [40] of over 100 µM and a TGI [41] of over 100 µM. It also gave a TGI [56] of over 84.5 µM, a TGI [42] of 41.8 µM and a TGI [43] of 26.9 µM. For the same compound, the TGI [57] was 26.3 µM, the TGI [58] was 49.1 µM and the TGI [44] was 15.5 µM. The TGI [45] was 17.9 µM, the TGI [46] was over 100 µM and the TGI [47] was 99.3 µM. The TGI [48] was over 100 µM, the TGI [49] was 25.1 µM and the TGI [50] was over 100 µM. It also gave a TGI [51] of over 100 µM, a TGI [52] of over 100 µM and a TGI [53] of 22.9 µM.
